# Laboratory results taken from ChEMBL document CHEMBL6153135, “Rational Design of a Potent, Selective, and Metabolically Stable CDK9 Inhibitor to Counteract Osimertinib Resistance through Mcl-1 Suppression and Enhanced BRD4 Co-Targeting” (J Med Chem, 2025).
# Activity calls are given as the source filed them. The rule behind the calls is not given here.
# Key:
# [1] = target: CDK9/cyclin T1 (Homo sapiens, UniProt P50750); assay: Inhibition of CDK9/cyclin T1 (unknown origin) preincubated for 10 mins followed by substrate/ATP measured after 60 mins by ADP-Glo assay; type: protein-complex assay
# CDK9/cyclin T1, sequence (O60563 whole entry): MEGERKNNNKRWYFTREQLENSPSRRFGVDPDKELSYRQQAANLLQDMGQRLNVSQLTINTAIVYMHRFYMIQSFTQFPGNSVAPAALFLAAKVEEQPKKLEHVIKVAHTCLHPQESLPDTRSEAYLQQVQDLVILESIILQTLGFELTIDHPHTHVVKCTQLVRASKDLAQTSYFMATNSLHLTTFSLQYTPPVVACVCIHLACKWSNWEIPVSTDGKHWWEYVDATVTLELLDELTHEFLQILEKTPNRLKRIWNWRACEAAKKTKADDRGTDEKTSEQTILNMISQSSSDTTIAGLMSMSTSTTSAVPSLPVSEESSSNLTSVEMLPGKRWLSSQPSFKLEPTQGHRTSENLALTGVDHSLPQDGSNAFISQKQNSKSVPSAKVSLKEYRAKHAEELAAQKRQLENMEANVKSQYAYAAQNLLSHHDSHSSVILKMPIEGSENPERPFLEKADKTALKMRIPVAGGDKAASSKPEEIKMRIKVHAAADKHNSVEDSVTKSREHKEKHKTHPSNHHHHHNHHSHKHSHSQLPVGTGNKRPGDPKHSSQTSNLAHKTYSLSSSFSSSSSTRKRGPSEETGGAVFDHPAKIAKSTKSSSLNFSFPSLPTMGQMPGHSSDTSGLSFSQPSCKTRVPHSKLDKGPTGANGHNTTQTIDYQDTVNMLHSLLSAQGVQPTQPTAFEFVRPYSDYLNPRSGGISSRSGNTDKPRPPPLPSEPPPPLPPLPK
# CDK9/cyclin T1, sequence (P50750 whole entry): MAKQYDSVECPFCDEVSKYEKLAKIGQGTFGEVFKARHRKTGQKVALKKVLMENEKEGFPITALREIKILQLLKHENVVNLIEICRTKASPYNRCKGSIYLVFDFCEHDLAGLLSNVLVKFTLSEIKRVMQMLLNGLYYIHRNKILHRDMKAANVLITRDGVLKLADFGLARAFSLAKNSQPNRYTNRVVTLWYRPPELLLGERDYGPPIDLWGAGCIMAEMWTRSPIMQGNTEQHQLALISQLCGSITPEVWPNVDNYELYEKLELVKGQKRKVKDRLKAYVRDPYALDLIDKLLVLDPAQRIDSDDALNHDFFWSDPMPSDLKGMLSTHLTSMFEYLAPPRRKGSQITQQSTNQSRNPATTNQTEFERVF
# [2] = Half life in Sprague-Dawley rat at 20 mg/kg, po; type: ADME, organism-based; settings: in vivo
# [3] = target: CDK2/Cyclin A2 (Homo sapiens) (UniProt P24941+P20248); assay: Inhibition of CDK2/Cyclin A2 (unknown origin) at 100 nM preincubated for 10 mins followed by substrate/ATP measured after 60 mins by ADP-Glo assay relative to control; type: protein-complex assay; settings: time 70.0 min
# [4] = tested on: Lung adenocarcinoma organoid; assay: Anti-tumor activity against patient (#2514)-derived human Lung adenocarcinoma organoid assessed as inhibition of cell viability measured after 96 hrs; type: functional, tissue-based; settings: Neoplasm
# [5] = tested on: A549; assay: Anti-proliferative activity against human A549 cells assessed as cell inhibition measured after 72 hrs by MTT assay; type: functional, cell-based; settings: A549, 72 h
# [6] = tested on: NCI-H1975; assay: Antitumor activity against human NCI-H1975 cells xenografted in BALB-c nude mouse at 30 mg/kg, po administered on every two days relative to control; type: functional; settings: NCI-H1975, 48 h, read-out: TGI
# [7] = tested on: Osimertinib-resistant HCC827 cell; assay: Upregulation of c-Myc level in human Osimertinib-resistant HCC827 cells at 100 to 500 nM incubated for 12 hrs by Western blot analysis; type: functional, cell-based; settings: dose 100-500 nM
# [8] = Drug concentration in plasma of BALB-c nude mouse xenografted with human NCI-H1975 cells at 15 mg/kg, iv measured after 30 mins by LC-MS/MS analysis; type: ADME, organism-based
# [9] = Tmax in BALB/c mouse at 15 mg/kg, po; type: ADME, organism-based; settings: in vivo
# [10] = Metabolic stability in rat liver microsomes assessed as clearance measured for 5 to 60 mins by LC-MS/MS analysis; type: ADME, Microsome; settings: time 5-60 min, read-out: CLH
# [11] = target: Cyclin-dependent kinase 4/cyclin D1 (Homo sapiens) (UniProt P11802+P24385); assay: Inhibition of CDK4/Cyclin D1 (unknown origin) at 100 nM preincubated for 10 mins followed by substrate/ATP measured after 60 mins by ADP-Glo assay relative to control; type: protein-complex assay; settings: time 70.0 min
# [12] = organism: Homo sapiens; assay: Inhibition of CDK12/Cyclin E1(unknown origin) at 100 nM preincubated for 10 mins followed by substrate/ATP measured after 60 mins by ADP-Glo assay relative to control; settings: time 70.0 min
# [13] = Metabolic stability in human liver microsomes assessed as half life measured for 5 to 60 mins by LC-MS/MS analysis; type: ADME, Microsome; settings: time 5-60 min
# [14] = tested on: HCC827; assay: Anti-proliferative activity against human HCC827 cells assessed as cell inhibition measured after 72 hrs in presence of 250 nM JQ1 by MTT assay; type: functional, cell-based; settings: HCC827, 72 h
# [15] = target: Cyclin-dependent kinase 9 (Homo sapiens) (UniProt P50750); assay: Inhibition of CDK9 in human Osimertinib-resistant HCC827 cells assessed as decrease in Mcl-1 mRNA level by RNA-Seq analysis; type: cell-based; settings: Osimertinib-resistant HCC827 cell
# Cyclin-dependent kinase 9 (Homo sapiens), sequence (P50750 whole entry): as above
# [16] = tested on: HCC827; assay: Anti-proliferative activity against human HCC827 cells assessed as cell inhibition measured after 72 hrs in presence of 100 nM JQ1 by MTT assay; type: functional, cell-based; settings: HCC827, 72 h
# [17] = target: CDK18/Cyclin Y (Homo sapiens) (UniProt Q07002+Q8ND76); assay: Inhibition of CDK18/Cyclin Y(unknown origin) at 100 nM preincubated for 10 mins followed by substrate/ATP measured after 60 mins by ADP-Glo assay relative to control; type: protein-complex assay; settings: time 70.0 min
# [18] = AUC (0 to t) in Sprague-Dawley rat at 2 mg/kg, iv; type: ADME, organism-based; settings: in vivo
# [19] = Metabolic stability in monkey liver microsomes assessed as half life measured for 5 to 60 mins by LC-MS/MS analysis; type: ADME, Macaca mulatta, Microsome; settings: rhesus monkey, time 5-60 min
# [20] = target: Homeodomain-interacting protein kinase 1 (Homo sapiens) (UniProt Q86Z02); assay: Inhibition of HIPK1 (unknown origin) at 100 nM preincubated for 10 mins followed by substrate/ATP measured after 60 mins by ADP-Glo assay relative to control; settings: time 70.0 min
# Homeodomain-interacting protein kinase 1 (Homo sapiens), sequence (Q86Z02 whole entry, looked up): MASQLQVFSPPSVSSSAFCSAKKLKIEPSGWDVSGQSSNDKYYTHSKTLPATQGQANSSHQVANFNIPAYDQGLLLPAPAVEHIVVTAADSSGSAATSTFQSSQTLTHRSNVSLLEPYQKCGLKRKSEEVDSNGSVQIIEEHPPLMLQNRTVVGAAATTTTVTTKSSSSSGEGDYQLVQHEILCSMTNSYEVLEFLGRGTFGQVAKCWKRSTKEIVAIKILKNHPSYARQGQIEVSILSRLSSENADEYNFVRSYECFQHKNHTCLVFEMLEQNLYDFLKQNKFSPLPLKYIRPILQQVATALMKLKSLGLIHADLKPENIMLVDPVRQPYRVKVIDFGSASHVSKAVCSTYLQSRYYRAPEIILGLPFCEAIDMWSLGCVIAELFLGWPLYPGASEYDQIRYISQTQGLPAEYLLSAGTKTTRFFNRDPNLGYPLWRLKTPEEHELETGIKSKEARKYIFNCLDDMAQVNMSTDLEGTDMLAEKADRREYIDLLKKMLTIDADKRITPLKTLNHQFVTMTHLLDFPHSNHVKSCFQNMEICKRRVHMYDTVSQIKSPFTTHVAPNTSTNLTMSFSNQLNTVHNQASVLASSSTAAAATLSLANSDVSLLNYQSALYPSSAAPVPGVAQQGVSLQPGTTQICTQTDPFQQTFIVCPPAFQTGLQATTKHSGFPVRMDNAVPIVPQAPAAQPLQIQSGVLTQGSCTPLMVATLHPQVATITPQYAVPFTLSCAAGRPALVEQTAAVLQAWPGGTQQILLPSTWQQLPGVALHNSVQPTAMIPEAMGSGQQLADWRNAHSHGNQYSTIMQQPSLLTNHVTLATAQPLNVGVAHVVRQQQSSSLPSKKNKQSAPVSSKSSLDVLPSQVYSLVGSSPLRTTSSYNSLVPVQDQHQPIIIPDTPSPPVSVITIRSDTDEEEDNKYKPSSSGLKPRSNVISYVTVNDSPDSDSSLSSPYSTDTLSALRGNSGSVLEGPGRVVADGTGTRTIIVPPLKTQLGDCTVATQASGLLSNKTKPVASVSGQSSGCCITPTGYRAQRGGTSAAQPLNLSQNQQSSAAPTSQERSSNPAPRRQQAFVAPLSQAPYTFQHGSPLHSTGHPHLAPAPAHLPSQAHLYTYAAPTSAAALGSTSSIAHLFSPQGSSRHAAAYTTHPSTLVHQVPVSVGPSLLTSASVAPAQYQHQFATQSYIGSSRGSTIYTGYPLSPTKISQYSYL
# [21] = tested on: Lung adenocarcinoma organoid; assay: Anti-tumor activity against Almonertinib-resistant patient (#2566)-derived human Lung adenocarcinoma organoid assessed as inhibition of cell viability measured after 96 hrs; type: functional, tissue-based; settings: Neoplasm
# [22] = tested on: Osimertinib-resistant HCC827 cell; assay: Upregulation of c-Myc mRNA level in human Osimertinib-resistant HCC827 cells by RNA-Seq analysis; type: functional, cell-based
# [23] = tested on: Osimertinib-resistant NCI-H1975 cell; assay: Anti-proliferative activity against human Osimertinib-resistant NCI-H1975 cells assessed as cell inhibition measured after 72 hrs by MTT assay; type: functional, cell-based
# [24] = tested on: NCI-H1975; assay: Anti-proliferative activity against human NCI-H1975 cells assessed as cell inhibition measured after 72 hrs in presence of 500 nM JQ1 by MTT assay; type: functional, cell-based; settings: NCI-H1975, 72 h
# [25] = tested on: HCC827; assay: Anti-proliferative activity against human HCC827 cells assessed as cell inhibition measured after 72 hrs by MTT assay; type: functional, cell-based; settings: HCC827, 72 h
# [26] = tested on: Osimertinib-resistant NCI-H1975 cell; assay: Selectivity ratio of IC50 for anti-proliferative activity against human Osimertinib-resistant NCI-H1975 cells to IC50 for anti-proliferative activity against human Osimertinib-resistant NCI-H1975 cells in presence of JQ1; type: functional
# [27] = target: Cyclin-dependent kinase 9 (Homo sapiens) (UniProt P50750); assay: Inhibition of CDK9 in human Osimertinib-resistant HCC827 cells assessed as decrease in Mcl-1 level at 100 nM incubated for 12 hrs in presence of JQ1 by Western blot analysis; type: cell-based; settings: Osimertinib-resistant HCC827 cell
# [28] = Selectivity ratio of IC50 for anti-proliferative activity against human Osimertinib-resistant HCC827 cells to IC50 for anti-proliferative activity against human Osimertinib-resistant HCC827 cells in presence of JQ1; type: functional
# [29] = tested on: Lewis lung carcinoma cell line; assay: Anti-proliferative activity against Lewis lung carcinoma cells assessed as cell inhibition measured after 72 hrs by MTT assay; type: functional, cell-based; settings: Mus musculus
# [30] = target: CDK2/Cyclin A2 (Homo sapiens, UniProt P24941); assay: Inhibition of CDK2/Cyclin A2 (unknown origin) preincubated for 10 mins followed by substrate/ATP measured after 60 mins by ADP-Glo assay; type: protein-complex assay
# [31] = tested on: NCI-H596; assay: Anti-proliferative activity against human NCI-H596 cells assessed as cell inhibition measured after 72 hrs by MTT assay; type: functional, cell-based; settings: NCI-H596, 72 h
# [32] = Metabolic stability in pig liver microsomes assessed as clearance measured for 5 to 60 mins by LC-MS/MS analysis; type: ADME, Sus scrofa, Microsome; settings: time 5-60 min, read-out: CLH
# [33] = AUC (0 to infinity) in Sprague-Dawley rat at 2 mg/kg, iv; type: ADME, organism-based; settings: in vivo
# [34] = Metabolic stability in mouse liver microsomes assessed as clearance measured for 5 to 60 mins by LC-MS/MS analysis; type: ADME, Microsome; settings: time 5-60 min, read-out: CLH
structure (smiles),measurement,setting,value
CC(=O)N1CCC(NC(=O)c2ccc3cc2OCCCCCCOc2cc(ccc2F)-c2nc(ncc2F)N3)CC1,IC50,[1],1.2 nM
same,half-life,[2],6.7 h
same,inhibition,[3],17.8%
same,IC50,[4],< 50 nM
same,IC50,[5],140 nM
same,inhibition in vivo at 30 mg/kg,[6],52.5%
same,Activity,[7],Active
same,concentration at 0.5 h,[8],2450 ng/mL
same,Tmax,[9],0.56 h
same,microsomal CLint,[10],38.4 µL/min/mg
same,inhibition,[11],25.7%
same,inhibition,[12],23.7%
same,half-life,[13],2.14 h
same,IC50,[14],19.3 nM
same,inhibition,[15],Active
same,IC50,[16],30.6 nM
same,inhibition,[17],5.98%
same,AUC(0-t),[18],2530 ng·h/mL
same,half-life,[19],0.985 h
same,inhibition,[20],88.5%
same,IC50,[21],48.3 nM
same,Activity,[22],Active
same,IC50,[23],50 nM
same,IC50,[24],4.7 nM
same,IC50,[25],150 nM
same,Ratio IC50,[26],10
same,inhibition,[27],Active
same,Ratio IC50,[28],10
same,IC50,[29],170 nM
same,IC50,[30],126 nM
same,IC50,[31],90 nM
same,microsomal CLint,[32],35.3 µL/min/mg
same,AUC(0-inf),[33],2550 ng·h/mL
same,microsomal CLint,[34],21.6 µL/min/mg
